In patent publication US10758534B2 (Vertex Pharmaceuticals Incorporated, priority 2014, dated 2020):
Where two headings read alike, the source gives them in different places.

Biological target: T1, F508del (Homo sapiens, UniProt P13569, DEL508-508)
T1 construct: expressed in transfected cells
Test: Protocol 2: FRET membrane potential optical assay (VIPR), identification of correction compounds
Type: cell-based
Procedure, shortened: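 Mouse NIH3T3 cells, stable F508del; cpd 16 hrs, 37° C., serum-free; pos ctrl 27° C. 16 hrs. Rinse in Krebs Ringers, dye load, then add 10 μM forskolin + 20 μM genistein with Cl^−-free (gluconate) medium; depolarization by FRET voltage dyes.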

[1] = F508del CFTR modulator activity, compounds of Table 1, read-out: EC30
[2] = Table 3, compounds of Table 1 as modulators of CFTR activity, protocol not stated

T1 sequence (P13569 with tags, fused parts or gaps DEL508-508): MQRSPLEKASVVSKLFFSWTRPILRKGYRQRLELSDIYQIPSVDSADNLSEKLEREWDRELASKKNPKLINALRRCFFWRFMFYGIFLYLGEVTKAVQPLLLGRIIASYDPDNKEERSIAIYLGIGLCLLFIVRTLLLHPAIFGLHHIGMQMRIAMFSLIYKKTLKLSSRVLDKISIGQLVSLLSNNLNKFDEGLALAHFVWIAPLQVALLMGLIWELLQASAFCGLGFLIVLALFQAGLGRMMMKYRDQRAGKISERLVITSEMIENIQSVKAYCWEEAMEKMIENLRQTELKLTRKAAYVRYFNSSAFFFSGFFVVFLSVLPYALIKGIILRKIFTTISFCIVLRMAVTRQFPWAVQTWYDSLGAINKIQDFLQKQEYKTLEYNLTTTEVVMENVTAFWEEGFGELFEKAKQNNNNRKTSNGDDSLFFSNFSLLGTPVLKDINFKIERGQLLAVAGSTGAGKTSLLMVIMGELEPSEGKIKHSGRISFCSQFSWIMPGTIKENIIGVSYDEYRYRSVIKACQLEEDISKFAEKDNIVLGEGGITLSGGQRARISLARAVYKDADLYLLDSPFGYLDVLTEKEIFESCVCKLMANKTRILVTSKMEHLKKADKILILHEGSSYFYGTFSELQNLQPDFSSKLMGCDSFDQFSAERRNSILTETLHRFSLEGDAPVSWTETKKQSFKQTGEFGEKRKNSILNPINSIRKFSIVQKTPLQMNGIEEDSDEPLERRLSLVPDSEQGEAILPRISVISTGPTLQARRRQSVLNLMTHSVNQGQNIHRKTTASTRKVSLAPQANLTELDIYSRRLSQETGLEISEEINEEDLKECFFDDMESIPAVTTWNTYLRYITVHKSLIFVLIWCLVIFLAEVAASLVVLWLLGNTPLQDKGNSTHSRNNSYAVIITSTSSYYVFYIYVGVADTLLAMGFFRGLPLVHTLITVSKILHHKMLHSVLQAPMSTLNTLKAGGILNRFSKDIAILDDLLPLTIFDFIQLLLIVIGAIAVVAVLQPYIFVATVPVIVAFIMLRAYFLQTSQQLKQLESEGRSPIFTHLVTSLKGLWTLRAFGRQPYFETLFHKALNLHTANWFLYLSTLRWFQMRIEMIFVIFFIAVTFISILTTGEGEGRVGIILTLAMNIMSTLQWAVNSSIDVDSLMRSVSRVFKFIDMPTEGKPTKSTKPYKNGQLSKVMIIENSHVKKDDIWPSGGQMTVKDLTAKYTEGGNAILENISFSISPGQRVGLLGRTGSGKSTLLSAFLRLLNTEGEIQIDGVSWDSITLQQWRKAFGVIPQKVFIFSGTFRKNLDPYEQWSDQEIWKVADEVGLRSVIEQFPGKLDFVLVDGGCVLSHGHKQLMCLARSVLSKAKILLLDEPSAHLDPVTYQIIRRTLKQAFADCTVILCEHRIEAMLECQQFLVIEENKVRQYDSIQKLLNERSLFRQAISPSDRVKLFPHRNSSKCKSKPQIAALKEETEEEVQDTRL

Row | SMILES | EC30 [1] | EC30 [2]
1 | CC(C)COc1cccc(-c2ccc(C(=O)NS(=O)(=O)c3cccc(N)n3)c(N3CC(C)CC3(C)C)n2)n1 (stereo not shown) [Compound 397, N-[(6-amino-2-pyridyl)sulfonyl]-6-(6-isobutoxy-2-pyridyl)-2-(2,2,4-trimethylpyrrolidin-1-yl)pyridine-3-carboxamide] | – | +++ (“+++” means <3 uM)
2 | CC(C)COc1cc(F)cc(-c2ccc(C(=O)NS(=O)(=O)c3ccccc3)c(N3CCC(C)(C)CC3)n2)c1 [Compound 583, N-(benzenesulfonyl)-2-(4,4-dimethyl-1-piperidyl)-6-(3-fluoro-5-isobutoxy-phenyl)pyridine-3-carboxamide] | – | +++ (“+++” means <3 uM)
3 | COCC1CCCCN1c1nc(-c2ccc(OC(C)C)nc2)ccc1C(=O)NS(=O)(=O)c1cccc(N)n1 (stereo not shown) [Compound 574, N-[(6-amino-2-pyridyl)sulfonyl]-6-(6-isopropoxy-3-pyridyl)-2-[2-(methoxymethyl)-1-piperidyl]pyridine-3-carboxamide] | – | ++ (“++” means between 3 uM and 10 uM)
4 | C[C@@H]1CN(c2nc(C(C)(C)C)c(C(O)C(O)C3CCCCC3)cc2C(=O)NS(=O)(=O)c2cccc(N)n2)C(C)(C)C1 (stereo partly shown) [Compound 2475] | < 3000 nM | –
5 | CC1CN(c2ncccc2C(=O)NS(=O)(=O)c2cccc(N[C@H]3CC[C@H](NC(=O)OC(C)(C)C)CC3)n2)C(C)(C)C1 (stereo partly shown) [Compound 2439, tert-butyl N—[4-[[6-[[2-(2,2,4-trimethylpyrrolidin-1-yl)pyridine-3-carbonyl]sulfamoyl]-2-pyridyl]amino]cyclohexyl]carbamate] | < 3000 nM | –
6 | COc1c(F)cc(-c2ccc(C(=O)NS(=O)(=O)c3cccnc3N)c(N3C[C@@H](C)CC3(C)C)n2)cc1F [Compound 2457, N-[(2-amino-3-pyridyl)sulfonyl]-6-(3,5-difluoro-4-methoxy-phenyl)-2-[(4S)-2,2,4-trimethylpyrrolidin-1-yl]pyridine-3-carboxamide] | < 3000 nM | –
7 | CC(C)COc1cc(F)cc(-c2ccc(C(=O)NS(=O)(=O)c3cccc(N)n3)c(OCC3CC3(F)F)n2)c1 (stereo not shown) [Compound 769, N-[(6-amino-2-pyridyl)sulfonyl]-2-[(2,2-difluorocyclopropyl)methoxy]-6-(3-fluoro-5-isobutoxy-phenyl)pyridine-3-carboxamide] | – | +++ (“+++” means <3 uM)
8 | CC(C)COc1cc(F)cc(-c2ccc(C(=O)NS(=O)(=O)c3cccc(N)n3)c(N3C(C)CCC3(C)C)n2)c1 (stereo not shown) [Compound 496, N-[(6-amino-2-pyridyl)sulfonyl]-6-(3-fluoro-5-isobutoxy-phenyl)-2-(2,2,5-trimethylpyrrolidin-1-yl)pyridine-3-carboxamide] | – | +++ (“+++” means <3 uM)
9 | CC(C)COc1cc(F)cc(-c2ccc(C(=O)NS(=O)(=O)c3ccc[nH]c3=O)c(N3CCC(C)CC3)n2)c1 [Compound 422, 6-(3-fluoro-5-isobutoxy-phenyl)-2-(4-methyl-1-piperidyl)-N-[(2-oxo-1H-pyridin-3-yl)sulfonyl]pyridine-3-carboxamide] | – | +++ (“+++” means <3 uM)
10 | CC1CN(c2nc(OC(C)C3CC3)c(F)cc2C(=O)NS(=O)(=O)c2cccc(N)n2)C(C)(C)C1 (stereo not shown) [Compound 2373, N-[(6-amino-2-pyridyl)sulfonyl]-6-(1-cyclopropylethoxy)-5-fluoro-2-(2,2,4-trimethylpyrrolidin-1-yl)pyridine-3-carboxamide] | < 3000 nM | –
11 | Cc1ccccc1Oc1nc(-c2cc(F)cc(OCC(C)C)c2)ccc1C(=O)NS(=O)(=O)c1cccc(N)n1 [Compound 778, N-[(6-amino-2-pyridyl)sulfonyl]-6-(3-fluoro-5-isobutoxy-phenyl)-2-(2-methylphenoxy)pyridine-3-carboxamide] | – | +++ (“+++” means <3 uM)
12 | CC(C)COc1cc(F)cc(-c2ccc(C(=O)NS(=O)(=O)N3CC(N)CC(F)(F)C3)c(N3C[C@@H](C)CC3(C)C)n2)c1 (stereo partly drawn) [Compound 2209, N-[(5-amino-3,3-difluoro-1-piperidyl)sulfonyl]-6-(3-fluoro-5-isobutoxy-phenyl)-2-[(4S)-2,2,4-trimethylpyrrolidin-1-yl]pyridine-3-carboxamide] | < 3000 nM | –
13 | C[C@@H]1CN(c2nc(-c3ccc(O[C@@H](C)CO)nc3)ccc2C(=O)NS(=O)(=O)c2cccnc2N)C(C)(C)C1 [Compound 2687] | 3000 to 10000 nM | –
14 | COc1ccc(OC)c(Nc2cccc(S(=O)(=O)NC(=O)c3cccnc3N3CC(C)CC3(C)C)n2)c1 (stereo not shown) [Compound 2179, N—[[6-(2,5-dimethoxyanilino)-2-pyridyl]sulfonyl]-2-(2,2,4-trimethylpyrrolidin-1-yl)pyridine-3-carboxamide] | < 3000 nM | –

The remaining lines, values ahead:

Row | EC30 [1] | EC30 [2] | SMILES
15 | < 3000 nM | – | CC[C@@H](C)Oc1ncc(-c2ccc(C(=O)NS(=O)(=O)c3cccc(N)n3)c(N3C[C@@H](C)CC3(C)C)n2)cc1C [Compound 2576, N-[(6-amino-2-pyridyl)sulfonyl]-6-[5-methyl-6-[(1R)-1-methylpropoxy]-3-pyridyl]-2-[(4S)-2,2,4-trimethylpyrrolidin-1-yl]pyridine-3-carboxamide]
16 | < 3000 nM | – | CC1CN(c2ncccc2C(=O)NS(=O)(=O)c2cccc(OCc3ccc(C(F)(F)F)nc3)n2)C(C)(C)C1 (stereo not shown) [Compound 2476, N—[[6-[[6-(trifluoromethyl)-3-pyridyl]methoxy]-2-pyridyl]sulfonyl]-2-(2,2,4-trimethylpyrrolidin-1-yl)pyridine-3-carboxamide]
17 | – | +++ (“+++” means <3 uM) | Cc1cc(C)c(Cn2c(C(=O)NS(=O)(=O)c3cccc(N)c3)cc3ccc(C)cc32)c(C)c1 [Compound 62, N-(3-aminophenyl)sulfonyl-6-methyl-1-[(2,4,6-trimethylphenyl)methyl]indole-2-carboxamide]
18 | < 3000 nM | – | Cc1cccc(CNc2cccc(S(=O)(=O)NC(=O)c3cccnc3N3CC(C)CC3(C)C)n2)c1 (stereo not shown) [Compound 2391, N—[[6-(m-tolylmethylamino)-2-pyridyl]sulfonyl]-2-(2,2,4-trimethylpyrrolidin-1-yl)pyridine-3-carboxamide]
19 | – | +++ (“+++” means <3 uM) | Cc1cc(C)c(CN2Cc3ccccc3C2(C)C(=O)NS(=O)(=O)c2ccn[nH]2)c(C)c1 (stereo not shown) [Compound 378, 1-methyl-N-(1H-pyrazol-5-ylsulfonyl)-2-[(2,4,6-trimethylphenyl)methyl]isoindoline-1-carboxamide]
20 | < 3000 nM | – | CC1CN(c2ncccc2C(=O)NS(=O)(=O)c2cccc(Nc3ccccc3)n2)C(C)(C)C1 (stereo not shown) [Compound 2639, N-[(6-anilino-2-pyridyl)sulfonyl]-2-(2,2,4-trimethylpyrrolidin-1-yl)pyridine-3-carboxamide]
21 | < 3000 nM | – | Cc1cccc(-c2ccc(C(=O)NS(=O)(=O)c3cccc(N)n3)c(N3C[C@@H](C)CC3(C)C)n2)c1C [Compound 2287, N-[(6-amino-2-pyridyl)sulfonyl]-6-(2,3-dimethylphenyl)-2-[(4S)-2,2,4-trimethylpyrrolidin-1-yl]pyridine-3-carboxamide]
22 | < 3000 nM | – | C[C@@H]1CN(c2nc(-c3ccccc3)ccc2C(=O)NS(=O)(=O)c2ccc[nH]c2=O)C(C)(C)C1 [Compound 2445, N-[(2-oxo-1H-pyridin-3-yl)sulfonyl]-6-phenyl-2-[(4S)-2,2,4-trimethylpyrrolidin-1-yl]pyridine-3-carboxamide]
23 | – | ++ (“++” means between 3 uM and 10 uM) | Cc1cccc(C)c1Oc1nc(C(F)(F)F)ccc1C(=O)NS(=O)(=O)c1cccc(N)n1 [Compound 246, N-[(6-amino-2-pyridyl)sulfonyl]-2-(2,6-dimethylphenoxy)-6-(trifluoromethyl)pyridine-3-carboxamide]
24 | – | +++ (“+++” means <3 uM) | Cc1cc(C)c(Cn2nc(C(C)(C)C)cc2C(=O)NS(=O)(=O)c2cccc(N(C)C)c2C)c(C)c1 [Compound 104, 5-tert-butyl-N-[3-(dimethylamino)-2-methyl-phenyl]sulfonyl-2-[(2,4,6-trimethylphenyl)methyl]pyrazole-3-carboxamide]
25 | – | ++ (“++” means between 3 uM and 10 uM) | Cc1ccc(-c2ccc(C(=O)NS(=O)(=O)c3ccc[nH]c3=O)c(N3[C@H](C)CC[C@@H]3C)n2)cc1 [Compound 392, 2-[(2R,5S)-2,5-dimethylpyrrolidin-1-yl]-N-[(2-oxo-1H-pyridin-3-yl)sulfonyl]-6-(p-tolyl)pyridine-3-carboxamide]
26 | – | ++ (“++” means between 3 uM and 10 uM) | Cc1ccc(-c2nc(C(C)(C)C)ccc2C(=O)NS(=O)(=O)c2cccc(N)c2)cc1F [Compound 349, N-(3-aminophenyl)sulfonyl-6-tert-butyl-2-(3-fluoro-4-methyl-phenyl)pyridine-3-carboxamide]
27 | – | +++ (“+++” means <3 uM) | Cc1cc(C)c(Cn2c(C(=O)NS(=O)(=O)c3ccccc3)cc3ccc(Cl)cc32)c(C)c1 [Compound 10, N-(benzenesulfonyl)-6-chloro-1-[(2,4,6-trimethylphenyl)methyl]indole-2-carboxamide]
28 | < 3000 nM | – | Cc1cccc(-c2ccc(C(=O)NS(=O)(=O)c3cccnc3N)c(N3C[C@@H](C)CC3(C)C)n2)c1O [Compound 2592, N-[(2-amino-3-pyridyl)sulfonyl]-6-(2-hydroxy-3-methyl-phenyl)-2-[(4S)-2,2,4-trimethylpyrrolidin-1-yl]pyridine-3-carboxamide]
29 | – | ++ (“++” means between 3 uM and 10 uM) | Cc1cc(C)c(CN2Cc3ccccc3C2C(=O)NS(=O)(=O)c2cccc(O)c2)c(C)c1 (stereo not shown) [Compound 254, N-(3-hydroxyphenyl)sulfonyl-2-[(2,4,6-trimethylphenyl)methyl]isoindoline-1-carboxamide]
30 | < 3000 nM | – | CCOc1cc(C)c(-c2ccc(C(=O)NS(=O)(=O)c3cccc(N)n3)c(N3C[C@@H](C)CC3(C)C)n2)cc1C [Compound 2227, N-[(6-amino-2-pyridyl)sulfonyl]-6-(4-ethoxy-2,5-dimethyl-phenyl)-2-[(4S)-2,2,4-trimethylpyrrolidin-1-yl]pyridine-3-carboxamide]
31 | < 3000 nM | – | Cc1cccc(-c2cnc(N3CC(C)CC3(C)C)c(C(=O)NS(=O)(=O)c3cccc(N)n3)c2)c1 (stereo not shown) [Compound 2184, N-[(6-amino-2-pyridyl)sulfonyl]-5-(m-tolyl)-2-(2,2,4-trimethylpyrrolidin-1-yl)pyridine-3-carboxamide]
